Test results reported in patent US10364263B2, “Cyclic phosphates and cyclic phosphoramidates for the treatment of neurologic disorders” (Retrophin, Inc., priority 2015, dated 2019).

System: PANK2 silenced human neuroblastoma IMR32 cells (PANK2−/−)
Assay: Coenzyme A assay in PANK2 silenced cells (LC-MS quantification of free CoA)
Assay type: cell-based
Details: compound added twice (24 h + 24 h), relative to 0.1% DMSO controls
Method: A human neuroblastoma IMR32 cell line (ATCC) with stably PANK2 silencing was obtained by lentiviral-delivered small hairpin RNA and cultured in MEM (Invitrogen) supplemented with 10% fetal bovine serum, 2 mM glutamine, 1% penicillin-streptomycin, 1 mM sodium pyruvate, 1 mM non essential amino acids and 1.5 g/l sodium bicarbonate.
For lentiviral shRNA expression, Human Emryonic Kidney HEK-293T cells (ATCC) were transfected with the appropriate pGFP-Lenti-shRNA constructs and packaging plasmids according to manufacturer's protocol (Origene Technologies, Inc.). Four different gene-specific shRNA expression vectors designed against multiple splice variants of PANK2 (Gene ID 80025) were used for transfection. A non-silencing shRNA construct (scrambled shRNA) and an empty vector expressing GFP alone were used as negative controls. The GFP tag subcloned into the lentiviral vectors was used to monitor the transfection efficiency.
IMR32 cells were plated on 150 cm dishes 48 h before transduction with lentiviral particles.
Three days after transduction medium was removed and replaced with fresh medium containing […] puromycin. Medium was replaced every 48 h. Levels of PANK2 expression on selected clones was assessed by Western Blot analysis.
To quantify CoA, PANK2^−/− IMR32 cells were plated on 12-well culture plates (Corning) at a density of 0.2×10^6 cells per well. After 72 h, compounds were freshly dissolved in DMSO and added to the culture medium to yield a final solvent concentration of 0.1% (v/v). Controls with medium containing 0.1% DMSO without test compounds were also included in each plate. Compound treated cells were incubated for 24 h at 37° C. Treatment was repeated after 24 h with newly dissolved compound and cells were further incubated at 37° C. for additional 24 h. Before LC-MS analysis of CoA levels, cells were harvested, counted, and collected in a 15 ml falcon tube and centrifuged at 200×g for 5 min at 4° C. Supernatant was removed and cell pellet was washed in 10 ml of ice-cold PBS. To further confirm that the numbers of cells in each sample were equivalent, an equal fraction of pellet was collected from each sample and subjected to protein determination analysis. After centrifugation and supernatant removal, the cell pellet was rapidly frozen in Liquid Nitrogen and stored at −80° C. until analysis.
Intracellular CoA levels were calculated considering an intracellular volume of 1 million cells=2 μl.
The 1×10^6 cellular pellet was extracted with 120 μl of aqueous 20% TFA. This solution was stirred for 2 min, sonicated in ultrasonic bath for 2 min, then stirred again for 1 min, and centrifuged for 15 min at 14000 g and at 4° C.
100 μL samples of supernatant were dried under N2 at 20° C. in the dark.
Samples were re-dissolved in 100 μl of 10 mM NH4^+ AcO^− buffer pH 5.1+IS (Dextrorphan 50 ng/ml), stirred for 2 min, sonicated in ultrasonic bath for 1 min, then stirred again for 1 min, and injected into LC-MS.
LC-MS/MS was performed using an Agilent HPLC (1100 Series, USA). The LC system was interfaced with an API-4000 Q-Trap triple quadrupole mass spectrometer (AB Sciex, Toronto, Canada) equipped with a TurbolonSpray ionization source operating in positive ion mode. Analyst™ software version 1.6 (AB Sciex, Toronto, Canada) was used for data acquisition and processing. CoA was separated using a Luna C18 column (2.0×50 mm; 5 μm particle size), column at 25° C. and flow rate of 0.2 ml/min. Injection volume was 15 μl. The mobile phases consisted of water containing 10 mM ammonium acetate pH 7 (mobile phase A) and MeCN-2-propanol 9:1 (mobile phase B). Elution was performed using a gradient starting at 2% B, holding at 2% B until 0.1 min, increasing to 98% B at 3.2 min, holding at 98% B until 4.5 min, returning to 2% B at 4.6 min and holding at 2% B until 7.5 min. Precursor ions and MRM transitions used were: CoA m/z 768.1→261.6 and 768.1→136.1. […]

| SMILES | PANK2−/− CoA (Fold Increase): fold increase in Coenzyme A (CoA) levels relative to controls |
| --- | --- |
| COC(=O)CCNC(=O)[C@@H]1O[P@](=O)(OCC(F)(F)F)OCC1(C)C [2-123, methyl 3-((2S,4R)-5,5-dimethyl-2-oxido-2-(2,2,2-trifluoroethoxy)-1,3,2-dioxaphosphinane-4-carboxamido)propanoate] | 1.46 Fold Increase |
| COC(=O)CCNC(=O)[C@@H]1OP(=O)(OCOC(=O)NC(C)(C)COC(C)=O)OCC1(C)C (stereo partly drawn) [2-152, methyl 3-((4R)-2-((((l-acetoxy-2-methylpropan-2-yl)carbamoyl)oxy)methoxy)-5,5-dimethyl-2-oxido-1,3,2-dioxaphosphinane-4-carboxamido)propanoate] | 1.24 Fold Increase |
| COC(=O)CCNC(=O)[C@@H]1O[P@](=O)(OCOC(=O)c2cc(C(C)(C)C)nn2C)OCC1(C)C [2-170, (((2R,4R)-4-((3-methoxy-3-oxopropyl)carbamoyl)-5,5-dimethyl-2-oxido-1,3,2-dioxaphosphinan-2-yl)oxy)methyl 3-(tert-butyl)-1-methyl-1H-pyrazole-5-carboxylate] | 82.88 Fold Increase |
| CCOC(=O)CCNC(=O)[C@@H]1OP(=O)(OCOC(=O)C(C)(C)C)OCC1(C)C (single isomer, unassigned) [Compound No. 107] | 85.06 Fold Increase |
| CCN(CC)C(=O)[C@H](Cc1ccccc1)NC(=O)OCOP1(=O)OCC(C)(C)[C@H](C(=O)NCCC(=O)OC)O1 (stereo partly drawn) [2-135, methyl 3-((4R)-2-(((((S)-1-(diethylamino)-1-oxo-3-phenylpropan-2-yl)carbamoyl)oxy)methoxy)-5,5-dimethyl-2-oxido-1,3,2-dioxaphosphinane-4-carboxamido)propanoate] | 1.7 Fold Increase |
| COC(=O)[C@H](C)N[P@@]1(=O)OCC(C)(C)[C@H](C(=O)NCCC(=O)OCc2ccncc2)O1 (single isomer, unassigned) [compound 18, methyl ((2R,4R)-5,5-dimethyl-2-oxido-4-((3-oxo-3-(pyridin-4-ylmethoxy)propyl)carbamoyl)-1,3,2-dioxaphosphinan-2-yl)-L-alaninate or methyl ((2S,4R)-5,5-dimethyl-2-oxido-4-((3-oxo-3-(pyridin-4-ylmethoxy)propyl)carbamoyl)-1,3,2-dioxaphosphinan-2-yl)-L-alaninate] | 2.06 Fold Increase |
| COC(=O)CCNC(=O)[C@@H]1O[P@](=O)(Oc2ccc([N+](=O)[O-])cc2)OCC1(C)C (single isomer, unassigned) [Compound No. 2-120] | 21.05 Fold Increase |
| CC(C)(C)C(=O)OCO[P@@]1(=O)OCC(C)(C)[C@H](C(=O)NCCC(=O)OCCC#N)O1 (single isomer, unassigned) [Compound No. 77] | 93.86 Fold Increase |
| COC(=O)CCNC(=O)[C@@H]1OP(=O)(OCCN2CCOCC2=O)OCC1(C)C (stereo partly drawn) [2-114, methyl 3-((4R)-5,5-dimethyl-2-oxido-2-(2-(3-oxomorpholino)ethoxy)-1,3,2-dioxaphosphinane-4-carboxamido)propanoate] | 1.87 Fold Increase |
| COC(=O)CCNC(=O)[C@@H]1OP(=O)(OCOC(=O)c2cc(C(C)(C)C)n[nH]2)OCC1(C)C (stereo partly drawn) [2-146, (((4R)-4-((3-methoxy-3-oxopropyl)carbamoyl)-5,5-dimethyl-2-oxido-1,3,2-dioxaphosphinan-2-yl)oxy)methyl 3-(tert-butyl)-1H-pyrazole-5-carboxylate] | 84.86 Fold Increase |
| COC(=O)CCNC(=O)[C@@H]1O[P@](=O)(OCOC(=O)c2ccnn2C)OCC1(C)C [2-185, (((2R,4R)-4-((3-methoxy-3-oxopropyl)carbamoyl)-5,5-dimethyl-2-oxido-1,3,2-dioxaphosphinan-2-yl)oxy)methyl 1-methyl-1H-pyrazole-5-carboxylate] | 114.15 Fold Increase |
| COC(=O)CCNC(=O)[C@@H]1OP(=O)(OCOC(=O)N[C@@H](CSC(=O)C(C)(C)C)C(=O)OC)OCC1(C)C (stereo partly drawn) [2-148, methyl N-(((((4R)-4-((3-methoxy-3-oxopropyl)carbamoyl)-5,5-dimethyl-2-oxido-1,3,2-dioxaphosphinan-2-yl)oxy)methoxy)carbonyl)-S-pivaloyl-L-cysteinate] | 4.19 Fold Increase |
| CC(C)(C)OC(=O)CCNC(=O)[C@@H]1OP(=O)(O)OCC1(C)C [Compound No. 2-111, tert-butyl 3-((4R)-2-hydroxy-5,5-dimethyl-2-oxido-1,3,2-dioxaphosphinane-4-carboxamido)propanoate] | 1.16 Fold Increase |
| COC(=O)CCNC(=O)[C@@H]1O[P@@](=O)(OCOC(=O)c2cc(C(C)(C)C)nn2C)OCC1(C)C [2-169, (((2S,4R)-4-((3-methoxy-3-oxopropyl)carbamoyl)-5,5-dimethyl-2-oxido-1,3,2-dioxaphosphinan-2-yl)oxy)methyl 3-(tert-butyl)-1-methyl-1H-pyrazole-5-carboxylate] | 20.26 Fold Increase |
| COC(=O)CCNC(=O)[C@@H]1OP(=O)(Oc2ccc([N+](=O)[O-])cc2)OCC1(C)C (stereo partly drawn) [Compound No. 2-134, Methyl 3-((4R)-5,5-dimethyl-2-(4-nitrophenoxy)-2-oxido-1,3,2-dioxaphosphinane-4-carboxamido)propanoate] | 5.37 Fold Increase |
| CC(C)(C)OC(=O)CCNC(=O)[C@@H]1O[P@](=O)(OCc2ccccc2)OCC1(C)C [Compound No. 63, tert-butyl 3-((4R)-2-(benzyloxy)-5,5-dimethyl-2-oxido-1,3,2-dioxaphosphinane-4-carboxamido)propanoate] | 2.24 Fold Increase |
| COC(=O)CCNC(=O)[C@@H]1O[P@@](=O)(Oc2ccc(S(F)(F)(F)(F)F)cc2)OCC1(C)C [2-124, methyl 3-((2S,4R)-5,5-dimethyl-2-oxido-2-(4-(pentafluoro-16-sulfanyl)phenoxy)-1,3,2-dioxaphosphinane-4-carboxamido)propanoate] | 1.12 Fold Increase |
| COC(=O)CCNC(=O)[C@@H]1OP(=O)(OCOC(=O)NCCOC(=O)C(C)(C)C)OCC1(C)C (stereo partly drawn) [2-183, 2-((((((4R)-4-((3-methoxy-3-oxopropyl)carbamoyl)-5,5-dimethyl-2-oxido-1,3,2-dioxaphosphinan-2-yl)oxy)methoxy)carbonyl)amino)ethyl pivalate] | 3.5 Fold Increase |
| COC(=O)CCNC(=O)[C@@H]1O[P@](=O)(NCC2CCCO2)OCC1(C)C (stereo partly drawn) [compound 119, methyl 3-((2S,4R)-5,5-dimethyl-2-oxido-2-(((tetrahydrofuran-2-yl)methyl)amino)-1,3,2-dioxaphosphinane-4-carboxamido)propanoate] | 1.44 Fold Increase |
| CCOC(=O)[C@H](CCc1ccccc1)NP1(=O)OCC(C)(C)[C@H](C(=O)NCCC(=O)OC)O1 (stereo partly drawn) [compound 6, ethyl (2S)-2-[[(4R)-4-[(3-methoxy-3-oxo-propyl)carbamoyl]-5,5-dimethyl-2-oxo-1,3,2-dioxaphosphinan-2-yl]amino]-4-phenyl-butanoate] | 1.11 Fold Increase |
